Consider 22 molecules from US20230027198A1 (The Rockefeller University, priority 2019, published 2023).

Structures are written as SMILES.

For one series, the system named is tumor. Particulars: preclinical studies in mice; cited from earlier work.
Series [1] relates to BET family of bromodomain proteins. Particulars: cited from earlier work.
For a further series, the system named is acute myeloid leukemia. Particulars: cited from earlier work.
In series [2] the target is T1, ENL YEATS domain (6×HIS ENL YEATS Domain) binding to H3K9cr peptide (Homo sapiens, UniProt Q03111).
T1 construct: aa1-150; EpiCypher, 15-0069; purchased EpiCypher 15-0069
T1 sequence (Q03111 1-150): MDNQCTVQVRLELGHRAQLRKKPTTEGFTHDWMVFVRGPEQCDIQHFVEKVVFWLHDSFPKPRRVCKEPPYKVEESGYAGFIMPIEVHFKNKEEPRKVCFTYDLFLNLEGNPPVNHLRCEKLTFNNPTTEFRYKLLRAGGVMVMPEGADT
The series is described as follows: TR-FRET ENL Screening Assay, FRET Assay Protocol 1. To be noted: H3K9cr peptide (aa1-20). How it is done:
Compounds of the invention were dissolved in DMSO at a concentration of 3 mM with subsequent dilutions in assay buffer (50 mM HEPES PH7.0, 150 mM NaCl, 0.05% BSA, 0.2% Pluronic F-127) such that the assay contained 1% DMSO. […] Low control (LC) wells received 5 uL of assay buffer instead of ENL protein. […] Compound concentration response curves were performed in duplicate over the concentration range of 0.15 nM-30 uM. The response at each compound concentration minus the LC value was converted to percent inhibition of the vehicle control group response (HC-LC). The relationship between the % inhibition and the compound concentration was analyzed using a four parameter logistic equation to estimate lower and upper asymptotes, the compound concentration producing 50% inhibition (IC50 value) and the slope at the mid-point location.
(In general: Time-resolved FRET reads energy transfer from a long-lived donor to a nearby acceptor.)

Another series has as its system MV4-11 cells. The series can be described thus: Cell viability assay (CellTiter-Glo), 12 days. It is filed as cell-based. Particulars: Homo sapiens, readouts on days 4, 8 and 12, day not given. The procedure: Cell-based assays were used to assess the ability of test compounds to reduce cell viability in both MV4:11 (MLL-AF4 MLL) and K562 cells, which were cultured in Iscove's Modified Dulbecco's medium (Gibco, 12440061) containing […]. The assays were conducted over 12 days and the cells being split on days 4 and 8. Compound concentration response curves were performed in duplicate over the concentration range of 0.15 nM-30 uM. On day 0, the compounds or vehicle were plated in a 300 nL directly into 96 well cell culture plates (Corning, 3599) with 5000 cells/well in a volume of 100 uL. Blank wells received cell culture medium. Plates were incubated for 4 days at 37° C. with 5% CO2. On days 4 and day 8 the cells were split and incubated for a further 4 days whilst an aliquot of cells were taken for the CTG readout. For the cell splitting, 270 nL of compounds or DMSO was added to a new 96 well cell culture plate to which 90 uL of medium plus 10 uL of cells from the original assay plate (after mixing) or 100 uL of medium (Blank wells) was added. This was repeated on day 8.
Cell viability was assessed using the CellTiter-Glo® homogeneous luminescent assay kit (Promega, G9243), according to the manufacturer's instructions. This quantifies ATP, which indicates the presence of metabolically active cells. On days 4, 8 and 12, 20 ul of the remaining cell suspension was aspirated into 384-well plate (Corning 3570) to which an equal volume CellTiter-Glo reagent was. Plates were incubated for 10 minute incubation at RT prior to recording the luminescence signal using EnVision plate reader (PE, 2104). The resulting data were analyzed as follows:
Inhibition (%)=100%×(Lumvehicie−Lumsample)/(Lumvehicle−Lumblank)
where vehicle are cells treated with 0.3% DMSO, Blank is culture medium. IC50 determinations were calculated by fitting the curve using XLfit (v5.3.1.3): Y=Bottom+(Top−Bottom)/(1+10^((Log IC50−X)*HillSlope)).

Series [3] relates to myeloma tumors; leukemic engraftment of patient-derived primary samples. To be noted: mice, cited from earlier work.

Take `CCn1nc(C2CC2)cc1Nc1nc(C(=O)NCCCOCCOCCOCCCNc2cccc3c2C(=O)N(C2CCC(=O)NC2=O)C3=O)nc2[nH]c3cc(-c4c(C)noc4C)c(OC)cc3c12` (stereo not drawn) [BET-d246]: the anti-tumor activity result in the series with tumor is recorded as “strong anti-tumor activity”.
`Cc1sc2c(c1C)C(c1ccc(Cl)cc1)=N[C@@H](CC(=O)OC(C)(C)C)c1nnc(C)n1-2` [JQ1]: in series [1], the “inhibition of BET bromodomain proteins” value is “potent inhibitor”.
`CCS(=O)(=O)Nc1ccc(Oc2ccc(F)cc2F)c(-c2cn(C)c(=O)c3[nH]ccc23)c1` [Mivebresib]: in the series on acute myeloid leukemia (patients with relapsed and refractory AML), the antileukemic effects entry was “showed antileukemic effects”. In addition, the tolerability entry with acute myeloid leukemia (phase 1 study, patients with solid tumors and AML) is listed as “well tolerated”.
Consider `C[C@H]1CCCN1Cc1cc2cnc(NC(=O)c3ccc(-c4cnn(C)c4)cc3F)cc2[nH]1` [Example 34], for which the half-inhibitory concentration (IC50) in series [2] was 227 nM; with MV4-11 cells, 0.122 µM.
The corresponding values for `C[C@H]1CCCN1Cc1cc2cnc(NC(=O)c3ccc4c(C5CC5)nn(C)c4c3)cc2[nH]1` [Example 56] are 78 nM and 0.044 µM.
Taken in the same sequence, the figures for `C[C@H]1CCCN1Cc1cc2cnc(NC(=O)c3ccc(-c4ccn(C)n4)cc3F)cc2[nH]1` [Example 32] were 1400 nM and 0.455 µM.
Taken in the same sequence, the figures for `C[C@H]1CCCN1Cc1cc2cnc(NC(=O)c3ccc4c(N(C)C)nn(C)c4c3)cc2[nH]1` [Example 86] were 209 nM and 0.482 µM.
As for `C[C@H]1CCCN1Cc1cc2cnc(NC(=O)c3ccc4c(CO)nccc4c3)cc2[nH]1` [Example 66], the IC50 in series [2] is 85 nM; in the series on MV4-11 cells, 0.094 µM.
For the molecule `C[C@H]1CCCN1Cc1cc2cnc(NC(=O)c3ccc4c(N)nccc4c3)cc2[nH]1` [Example 82], the IC50 turned out to be 33 nM in series [2] and 0.454 µM with MV4-11 cells.
Regarding `COc1cc2c(cc1-c1c(C)noc1C)ncc1[nH]c(=O)n([C@H](C)c3ccccn3)c12` [I-BET 151], the “leukemic engraftment and disease burden” value in series [3] (in vivo, patient-derived primary samples) is “impairs the leukemic engraftment of patient-derived primary samples and lowers the disease burden”. The “effect on myeloma tumors” value in series [3] is recorded as “reduced myeloma tumors”.
In the case of `COCCNc1nn(C)c2cc(C(=O)Nc3cc4[nH]c(CN5CCC[C@@H]5C)cc4cn3)ccc12` [Example 94, 3-[(2-methoxyethyl)amino]-1-methyl-N-(2-[[(2S)-2-methylpyrrolidin-1-yl]methyl]-1H-pyrrolo[3,2-c]pyridin-6-yl)indazole-6-carboxamide], the IC50 turned out to be 118 nM in series [2] and 0.365 µM in the series on MV4-11 cells.
Take `Cc1cc2cc(C(=O)Nc3cc4[nH]c(CN5CCC[C@@H]5C)cc4cn3)ccc2nn1` [Example 57]: the IC50 in series [2] was determined as 272 nM; with MV4-11 cells, 0.314 µM.
Taken in the same sequence, the figures for `Cn1ncc2cc(C(=O)Nc3cc4[nH]c(CN5CC6(COC6)C5)cc4cn3)ccc21` [Example 46] were 306 nM and 1.22 µM.
Consider `COCCn1cc(-c2ccc(C(=O)Nc3cc4[nH]c(CN5CCC[C@@H]5C)cc4cn3)cc2)cn1` [Example 51], for which the values for the half-maximal inhibitory concentration (IC50) (in series [2]; in the series with MV4-11 cells) were 187 nM and 0.077 µM, respectively.
Turning to `C[C@H]1CCCN1Cc1cc2cnc(NC(=O)c3ccc4oc(=O)[nH]c4c3)cc2[nH]1` [Example 24, N-(2-[[(2S)-2-methylpyrrolidin-1-yl]methyl]-1H-pyrrolo[3,2-c]pyridin-6-yl)-2-oxo-3H-1,3-benzoxazole-5-carboxamide], the figures for the IC50 (in series [2]; with MV4-11 cells) were 1090 nM and 1.46 µM, respectively.
Taken in the same sequence, the figures for `C[C@H]1CCCN1Cc1cc2cnc(NC(=O)c3ccc4c(c3)c(N)nn4C)cc2[nH]1` [Example 92] were 210 nM and 0.134 µM.
Regarding `C[C@H]1CCCN1Cc1cc2cnc(NC(=O)c3ccc4c(NCC(F)F)nn(C)c4c3)cc2[nH]1` [Example 95, 3-[(2,2-difluoroethyl)amino]-1-methyl-N-(2-[[(2S)-2-methylpyrrolidin-1-yl]methyl]-1H-pyrrolo[3,2-c]pyridin-6-yl)indazole-6-carboxamide], the IC50 came out at 160 nM in series [2] and 0.704 µM in the series with MV4-11 cells.
The corresponding values for `C[C@H]1CCCN1Cc1cc2cnc(NC(=O)c3ccc4c(c3)CNC(=O)N4C)cc2[nH]1` [Example 98] are 330 nM and 1.06 µM.
For the molecule `CNc1cc2ccc(C(=O)Nc3cc4[nH]c(CN5CCC[C@@H]5C)cc4cn3)cc2cn1` [Example 97], the IC50 in series [2] is 572 nM; in the series on MV4-11 cells, 0.321 µM.
As for `Cc1ccc2cc(C(=O)Nc3cc4[nH]c(CN5CCC[C@@H]5C)cc4cn3)ccc2n1` [Example 22], the IC50 was found to be 139 nM in series [2] and 0.127 µM with MV4-11 cells.
As to `C[C@H]1CCCN1Cc1cc2cnc(NC(=O)c3ccc4c(c3)[nH]c(=O)n4C)cc2[nH]1` [Example 93], the IC50 in series [2] came to 97 nM; with MV4-11 cells it was 0.181 µM.
The corresponding values for `C[C@H]1CCCN1Cc1cc2cnc(NC(=O)c3ccc4cnn(C)c4c3)cc2[nH]1` [Example 7] are 298 nM and 0.173 µM.

What is called IC50 is the midpoint of a concentration-inhibition curve. The low end stands for greater potency, the high end for weaker potency.
